Experiments:
[1] = tested on: MCF-7 cells; assay: MTT cell viability assay, MCF-7; format: cell-based; conditions: MCF-7, MTT, very low FOXC2 expression
Protocol: It was hypothesized that the specific binding of MC-1-F2 can lead to its specific cellular activity against cancer cells with high FOXC2 expression. This hypothesis was tested by evaluating MC-1-F2's cellular activity on cell lines with different FOXC2 expression levels: MCF-7, BT549, and MDA-MB-231. […] However, further studies are still underway. The specificity in cellular activity of MC-1-F2 was further evaluated in the form of a soft-agar colony forming assay to determine if MC-1-F2 was able to inhibit in vitro tumorigenicity of cancer cells in a FOXC2 expression-dependent manner. […] Further testing is underway in various breast cancer cell lines with different FOXC2 expression levels.
Cell viability was assessed by MTT (3-(4,5-Dimethylthiazol-2-yl)-2,5-Diphenyltetrazolium Bromide) assay. 1×10^4 cells were seeded on 48-well cell culture plate, and were incubated for at least 24 hours prior to drug treatment. The MTT reagent (Fisher Scientific) was added to the culture medium 3 hours prior to the end of compound incubation. The reaction took place in the 37° C. incubator with 5% CO2 for 3 hours. Cell culture medium was then removed from the wells. Cells with the insoluble purple formazan were lysed with DMSO for 10 mins at room temperature, 0.5 ml per well. The solution was aliquot to 96-well plate for absorbance reading at 570 nm using a plate reader.

[2] = tested on: DU145 cells; assay: Co-treatment MTT assay, DU145; conditions: constant ratio
[3] = target: T1, full-length FOXC2 (Homo sapiens, UniProt Q99958); assay: ELISA-like binding assay, immobilized full-length FOXC2; conditions: biotinylated compound, immobilized recombinant full-length FOXC2, Qdot655 fluorescence
T1 construct: human FOXC2 protein (amino acid residues 1-501) with a C-terminal 6 histidine tag; made in house; host or cells: E. coli BL21(DE3)
T1 sequence (Q99958 1-501): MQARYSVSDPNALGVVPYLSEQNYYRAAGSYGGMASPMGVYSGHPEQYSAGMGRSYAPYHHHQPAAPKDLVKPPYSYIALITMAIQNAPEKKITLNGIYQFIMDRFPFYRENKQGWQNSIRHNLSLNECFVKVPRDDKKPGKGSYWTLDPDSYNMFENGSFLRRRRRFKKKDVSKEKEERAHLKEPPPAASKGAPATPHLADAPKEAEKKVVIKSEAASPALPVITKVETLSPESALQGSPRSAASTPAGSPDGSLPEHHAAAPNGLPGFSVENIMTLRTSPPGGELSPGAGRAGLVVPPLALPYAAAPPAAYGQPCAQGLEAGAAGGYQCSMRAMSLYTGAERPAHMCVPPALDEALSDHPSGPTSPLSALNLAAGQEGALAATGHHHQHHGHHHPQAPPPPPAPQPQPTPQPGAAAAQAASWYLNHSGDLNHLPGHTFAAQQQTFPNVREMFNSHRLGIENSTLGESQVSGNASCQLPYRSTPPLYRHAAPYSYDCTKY
Protocol: The binding affinity of MC-1-F2 to full-length FOXC2 was determined using an ELISA-like binding assay. In this assay, varying concentrations of biotinylated MC-1-F2 or biotinylated MC-C (control; FIG. 12) were incubated in the wells with immobilized recombinant full-length FOXC2 or the DNA binding domain (DBD) of FOXC2 (FIG. 2A). After washing off unbound ligand, the wells were incubated with streptavidin-conjugated Qdot655, followed by fluorescence measurement of the wells using a plate reader. […] This is important for the specificity of MC-1-F2 to FOXC2 as several forkhead transcription factors share a very similar DNA-binding domain.
Clear bottom, black wall, 96 well plate (Corning) was coated with 1 μg/mL of full length FOXC2 or DNA binding domain (DBD) of FOXC2 protein in sensitizing buffer (0.621 g NaHCO3, 0.275 g Na2CO3 in 100 mL of water pH=9.5) overnight at 4° C. Wells were washed 3 times with 200 μL of wash buffer (lx PBS with 0.05% Tween-20). Wells were blocked with blocking buffer (1% BSA in 1×PBS with 0.05% Tween-20) for 1 hour at room temperature. 50 μL of serial dilutions of biotinylated compound in blocking buffer were added to each well and incubated for 1 hour at room temperature. Followed was the addition of […] of 20 nM of strepavidin-Qdot655 in blocking buffer for 1 hour at room temperature. […] Fluorescence was measured using a plate reader (Ex. 495, Em. 655).

[4] = tested on: PC3 cells; assay: Co-treatment MTT assay, PC3; conditions: constant ratio
[5] = tested on: DU145 cells; assay: Western blot of EMT, CSC markers and AR in DU145; format: cell-based; conditions: DU145, 20 μM, 48 hours
From the text: (§1) Due to our interest in CRPC the cell lines DU145 and PC3 were chosen due to their chemoresistance to high concentrations of enzalutamide, androgen independence, and relatively high expression of FOXC2 (FIGS. 30A&B). First, the effect of MC-1-F2 on the inhibition of EMT markers was examined (FIGS. 26A-G). […] The variability in E-cadherin expression can be due to a different mode of action the ligand MC-1-F2 is having on prostate cancer cells, possibly a time dependent effect of the ligand.
(§2) After confirmation of the ligand's ability to block EMT, the ligand's ability to decrease cancer stem cell (CSC) characteristics was determined. CRPC is plagued by a higher ratio of CSC to normal prostate cells, leading to the acquired characteristics of higher proliferative and self-renewal capabilities (Yun et al., 2016). CSC markers, Nanog, C-myc and KLF4, were examined.
(§3) 50 μg of total protein per sample was incubated with 4× loading buffer at 100° C. for 5 min. Protein samples were then loaded into a polyacrylamide gel and subjected to SDS-PAGE. Resolved proteins were then transferred by a wet transfer method to a PVDF membrane at 100 V for 1 hour using a BioRad Mini Trans-Blot Electrophoresis Transfer Cell. Upon the completion of wet transfer, the membrane was then blocked with 5% (w/v) fat-free milk in 1× Tris-buffered saline/0.1% (v/v) Tween-20 (TBS-T) for at least 1 hour. Then incubated with the respective primary antibodies diluted in 5% BSA in 1×TBST at 4° C. overnight. The following day exposed to 1:1000 dilution of anti-mouse […] secondary antibodies in 5% (w/v) fat-free milk in 1×TBS-T for 1 hour at room temperature. The probed proteins were then detected for chemiluminescent signal using SuperSignal Chemiluminescent Substrate (PIERCE). Pierce antibodies: B-actin, and all other antibodies used are from cell signaling.

[6] = tested on: PC3 cells; assay: Western blot of EMT, CSC markers and AR in PC3; format: cell-based; conditions: PC3, 20 μM, 48 hours
From the text: as §1, §2, §3

- Kd [3]: 26 µM
SMILES: N=C(N)NCCCCNc1nc(Nc2ccc(Oc3ccccc3)cc2)nc(N2CCN(c3nc(N)nc(Nc4ccc(N5CCOCC5)cc4)n3)CC2)n1 [MC-1-F2]
- inhibition of cell viability [1]: little inhibition of cell viability
- combination index with docetaxel (CompuSyn) [2]: negative combination index
- combination effect with docetaxel ([2]; 24 hours): synergistic effects
- combination effect with enzalutamide (CompuSyn) ([2]; 24 hours): only additive effects
- combination index with docetaxel (CompuSyn) [4]: negative combination index
- combination effect with docetaxel ([4]; 24 hours): synergistic effects
- combination effect with enzalutamide (CompuSyn) ([4]; 24 hours): only additive effects
- AR expression [5]: no effect on AR expression
- CSC markers Nanog, C-myc and KLF4 [5]: significant decreases
- E-cadherin expression levels [5]: recovery of E-cadherin
- EMT markers ZEB1, Vimentin, N-cadherin and Slug [5]: inhibit various EMT markers
- epithelial marker ZO-1 expression [5]: recovery of the epithelial marker ZO-1
- AR expression [6]: no effect on AR expression
- CSC markers Nanog, C-myc and KLF4 [6]: significant decreases
- E-cadherin expression levels [6]: no recovery in the expression levels of E-cadherin
- EMT markers ZEB1, Vimentin, N-cadherin and Slug [6]: inhibit various EMT markers
- epithelial marker ZO-1 expression [6]: recovery of the epithelial marker ZO-1
